Assay results reported in paper PMC5011760, “Luteolin Attenuates Airway Mucus Overproduction via Inhibition of the GABAergic System” (Scientific Reports, 2016).

Tested on: T1, GABAA receptors (GABAAR) in A549 cells
T1 construct: gene GABRA3; endogenous receptors of A549 cells, pentameric; exact subunit composition not determined (members = most abundant subunit mRNAs)
Assay: whole-cell patch clamp, A549 cells
Format: cell-based
Details: inhibition of currents evoked by 2.5 μM GABA; -60 mV, pH 7.4; authors call it allosteric modulator

O=c1cc(-c2ccc(O)c(O)c2)oc2cc(O)cc(O)c12 [luteolin, 3′,4′,5,7-tetrahydroxyflavone]
IC50: 8.2 µM
